Test results published in US10722480B2, “Agent for controlling cells constituting cancer microenvironment or inflammatory microenvironment” (The University of Tokyo, priority 2015, dated 2020).
pIC50: −log10 of the molar value.

How the values were obtained:
B16F10 melanoma cells [1] = assay: LDH cytotoxicity assay, B16F10 melanoma cells; assay type: cell-based; details: LDH release, 72 hours
Experimental: (§1) The cytotoxicity of inhibitors was tested by using LDH Cytotoxicity Detection Kit (TaKaRa) according to the manufacturer's instructions. Briefly, tumor cells were cultured in the presence or absence of an agent (disulfiram or 5FU) for 72 hours, and the culture supernatant was then collected and tested for the concentration of lactate dehydrogenase released from damaged cells. For measurement of cell proliferation, cells were incubated in a plate well together with an inhibitor for 48 hours. During the last 30 minutes, WST-1 (Dojindo Laboratories) was added to the culture liquid, and the absorbance of each well was measured at 450 nm versus 650 nm reference using EnVision (PerkinElmer) to detect the formazan level.

B16F10 melanoma cells [2] = assay: WST-1 proliferation assay, B16F10 melanoma cells; assay type: cell-based; details: WST-1, 48 hours
Experimental: as §1

CCR2 = target: T1, CCR2 (Homo sapiens, UniProt P41597); assay: Surface plasmon resonance binding to CCR2; details: SPR
T1 sequence (P41597 1-360 isoform P41597-2): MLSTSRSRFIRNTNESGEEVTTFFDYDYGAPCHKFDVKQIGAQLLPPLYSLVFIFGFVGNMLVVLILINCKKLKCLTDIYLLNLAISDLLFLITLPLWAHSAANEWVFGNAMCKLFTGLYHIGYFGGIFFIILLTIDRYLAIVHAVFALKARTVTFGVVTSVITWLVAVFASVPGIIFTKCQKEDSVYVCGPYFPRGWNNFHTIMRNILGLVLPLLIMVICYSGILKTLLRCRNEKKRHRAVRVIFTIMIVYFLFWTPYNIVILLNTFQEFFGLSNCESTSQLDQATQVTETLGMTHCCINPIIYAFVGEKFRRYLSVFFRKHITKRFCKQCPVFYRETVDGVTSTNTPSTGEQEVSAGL

[3] = target: T2, aldehyde dehydrogenase (ALDH) (Rattus norvegicus, UniProt P11884); details: Excerpt from Alcohol Clin Exp Res 1996.20.595-; read-out: ALDH inhibition; cited from earlier work
T2 sequence (P11884 20-519): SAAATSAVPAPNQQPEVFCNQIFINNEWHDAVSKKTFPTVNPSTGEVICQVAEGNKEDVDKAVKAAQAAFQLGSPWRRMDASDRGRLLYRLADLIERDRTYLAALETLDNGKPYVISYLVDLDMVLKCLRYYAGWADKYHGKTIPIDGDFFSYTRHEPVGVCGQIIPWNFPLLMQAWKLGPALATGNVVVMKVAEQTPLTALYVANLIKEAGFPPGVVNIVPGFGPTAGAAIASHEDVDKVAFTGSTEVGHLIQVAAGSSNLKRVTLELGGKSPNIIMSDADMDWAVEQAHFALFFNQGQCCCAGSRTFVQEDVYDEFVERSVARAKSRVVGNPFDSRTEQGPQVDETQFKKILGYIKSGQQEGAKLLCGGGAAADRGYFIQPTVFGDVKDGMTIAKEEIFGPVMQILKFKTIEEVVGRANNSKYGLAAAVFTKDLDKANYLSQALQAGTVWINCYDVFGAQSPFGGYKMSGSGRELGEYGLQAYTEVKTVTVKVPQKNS

[4] = target: T3, Full-length FROUNT protein (Homo sapiens, UniProt Q9BW27); assay: Surface plasmon resonance binding to FROUNT; details: SPR
T3 construct: made in house
T3 sequence (Q9BW27 1-656): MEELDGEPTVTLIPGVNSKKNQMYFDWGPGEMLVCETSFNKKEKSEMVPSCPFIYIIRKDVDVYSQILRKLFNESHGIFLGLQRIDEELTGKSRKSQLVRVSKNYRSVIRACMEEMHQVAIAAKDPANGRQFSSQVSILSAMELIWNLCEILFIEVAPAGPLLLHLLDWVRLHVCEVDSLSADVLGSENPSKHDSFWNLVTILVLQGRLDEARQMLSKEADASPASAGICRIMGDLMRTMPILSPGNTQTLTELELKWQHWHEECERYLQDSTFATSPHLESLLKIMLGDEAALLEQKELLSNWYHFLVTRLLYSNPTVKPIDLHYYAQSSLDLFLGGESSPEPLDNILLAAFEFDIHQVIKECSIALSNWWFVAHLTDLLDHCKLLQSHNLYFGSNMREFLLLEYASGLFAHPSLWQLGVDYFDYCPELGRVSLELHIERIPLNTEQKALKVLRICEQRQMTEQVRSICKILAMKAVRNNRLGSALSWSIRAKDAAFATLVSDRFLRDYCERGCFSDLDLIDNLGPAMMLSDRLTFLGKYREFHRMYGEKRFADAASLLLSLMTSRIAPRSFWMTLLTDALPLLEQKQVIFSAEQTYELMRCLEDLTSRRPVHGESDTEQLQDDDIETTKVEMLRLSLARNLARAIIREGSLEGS
Experimental: Interactions between FROUNT and compounds in the library were analyzed by surface plasmon resonance (SPR) using Biacore […] (GE Healthcare). Full-length FROUNT protein (SEQ ID NO:2) (Esaki, K. et al. Protein Expr Purif 77, 86-91, (2011)) was immobilized on a CM5 sensor chip. Solutions of disulfiram prepared by serial dilution in HBS-EP buffer containing 2% DMSO (GE Healthcare) were applied to the sensor chip at a flow rate of 30 μL/min. The resonance unit (RU) was measured during the process from the binding to the washing to analyze the binding dynamics. Biacore T100 evaluation software was used to carry out solvent correction for DMSO.

[5] = tested on: human leukocyte cell line THP-1; assay: In vitro chemotaxis assay, THP-1; assay type: cell-based; details: THP-1, concentration without cytotoxicity
Experimental: A human leukocyte cell line THP-1 was counted and resuspended in Boyden buffer (RPMI medium supplemented with 0.1% BSA), and the cells were preincubated with disulfiram before the chemotaxis assay. The cell migration activity was measured using a 96-well ChemoTX Chemotaxis Chamber (Neuro probe) with a polycarbonate filter with a pore size of […] Chemokine was applied to the lower chamber of the plate, and the cells were applied to the upper chamber. After incubation at 37° C. in 5% CO2 for 90 minutes, the filter was removed, and the number of migrated cells in the lower chamber was counted using Cell Counting Kit F (Dojindo Laboratories).

- binding to CCR2 (CCR2): did not bind
- binding to FROUNT protein [4]: directly bound
SMILES: CCN(CC)C(=S)SSC(=S)N(CC)CC [DSF, disulfiram]
- cytotoxic activity on B16F10 melanoma cells (B16F10 melanoma cells [1]): did not show any action
- growth-inhibiting action on B16F10 melanoma cells (B16F10 melanoma cells [2]): did not show any action
- pIC50 [3]: 5.13
- cell migration mediated by CCL2 [5]: inhibited
